Test results published in publication PMC7910394, “Design of PSMA ligands with modifications at the inhibitor part: an approach to reduce the salivary gland uptake of radiolabeled PSMA inhibitors?” (EJNMMI Radiopharmacy and Chemistry, 2021).

Legend:
[1] = system: LNCaP tumor xenograft-bearing CB17-SCID mouse; assay type: in vivo; settings: 1 h p.i.
Experimental: Detailed information on organ preparation and extraction procedures is provided in the supporting information. In brief, [^177Lu]Lu-11 (9.64 MBq) was injected into the tail vein of a LNCaP tumor xenograft-bearing CB17-SCID mouse. The animal was sacrificed 1 h p.i. and subjected to the standard procedure for biodistribution studies. In addition, urine was taken from all mice that were investigated in this experiment (8.4–9.0 MBq injected activity) and pooled (n = 5). Liver, tumor and kidneys were homogenized with a MM-400 ball mill (Retsch GmbH, Haan, Germany) at 30 Hz for 20 min and extracted with 1 mL radioimmunoprecipitation assay (RIPA) buffer containing 2 μmol of 2-(phosphonomethyl)pentane-1,5-dioic acid (2-PMPA). The suspension was centrifuged (15,200 rpm, 10 min, 21 °C) and the supernatants were loaded onto a preconditioned Strata-X cartridge (200 mg). Elution of the activity was conducted by 750 μL of MeCN/H2O (6/4, 0.1% TFA) and the extracts were analyzed via radio-RP-HPLC. Prior to solid phase extraction, blood samples were centrifuged twice (13,000 rpm, 5 min) to separate the plasma from the blood cells. Urine samples were also centrifuged (13,000 rpm, 5 min) and the supernatant was directly analyzed via radio-RP-HPLC.
Besides biodistribution and μSPECT/CT studies, [^177Lu]Lu-11 (tetrazole) was analyzed according to its metabolic stability 1 h p.i. Relevant dissected organs (tumor, kidney, liver) and body fluids (blood and urine) were collected, homogenized if necessary and subjected to extraction of the incorporated activity. […] The respective radio-RP-HPLC analyses of extracts from homogenized organs and body fluids are depicted in Figure 1 in the supporting information.
[^177Lu]Lu-11 (9.64 MBq) was injected into the tail vein of a LNCaP tumor xenograft-bearing CB17-SCID mouse. The animal was sacrificed 1 h p.i. and subjected to the standard procedure for biodistribution studies. In addition, urine was taken from all mice that were investigated in this experiment (8.4 - 9.0 MBq) and pooled (n = 5). Relevant dissected organs (tumor, kidneys, liver) and body fluids (blood and urine) were collected, homogenized if necessary and subjected to mechanochemical as well as solid phase extraction (SPE).
Four 2 mL LoBind tubes were equipped with steel and ceramic beads from Lysis Tubes W (analytikjena, Jena, Germany) for kidneys, tumor and liver (bisected). 1 mL radioimmunoprecipitation assay (RIPA) buffer containing 2.0 µmol of 2-PMPA was added to each tube and the organs were homogenized with a MM-400 ball mill (Retsch GmbH, Haan, Germany) at 30 Hz for 20 min. Afterwards, the homogenates were transferred to LoBind tubes free from steel and ceramic beads and centrifuged (15,200 rpm, 10 min, 21 °C). The first supernatants were stored, and the precipitates were again subjected to mechanochemical extraction with 1 mL RIPA buffer (2.0 µmol PMPA) at 30 Hz for 20 min. After centrifugation (15,200 rpm, 10 min, 21 °C), also the second supernatants were kept for SPE.
After cardiac puncture, 1 mL Tracepur®-H2O was directly added to the collected blood sample and centrifuged twice (13,000 rpm, 5 min) to separate the plasma from the blood cells. The precipitate was dissolved in 500 µL Tracepur®-H2O and together with the first supernatant again centrifuged (13,000 rpm, 5 min). Both supernatants were kept for SPE.
Pooled urine samples were centrifuged (13,000 rpm, 5 min) and the supernatant was directly analyzed via radio-RP-HPLC.

PSMA = biological target: T1, PSMA (Homo sapiens, UniProt Q04609); assay: Competitive binding assay (IC50) on LNCaP cells with ([125I]I-BA)KuE as radioligand; settings: ([125I]I-BA)KuE 0.2 nM, HBSS (1% BSA), 4 °C, 1 h
T1 construct: host or cells: LNCaP human prostate cancer cells
Experimental: PSMA-positive LNCaP cells (300265; Cell Lines Service, Eppelheim, Germany) were cultivated in Dulbecco’s modified Eagle medium/Nutrition Mixture F-12 with GlutaMAX (1/1, DMEM-F12, Thermo Fisher Scientific, Darmstadt, Germany) supplemented with 10% fetal bovine serum (Merck KGaA, Darmstadt, Germany) and kept at 37 °C in a humidified 5% CO2 atmosphere. One day (24 ± 2 h) prior to all in vitro experiments, the cultivated LNCaP cells were harvested using a mixture of trypsin/ethylenediamine-tetraacetic acid (0.05%/0.02%) in PBS (Thermo Fisher Scientific, Darmstadt, Germany) and centrifuged at 1300 rpm (ca. 190×g) for 3 min at room temperature (Heraeus Megafuge 16, Thermo Fisher Scientific, Darmstadt, Germany). After centrifugation, the supernatant was disposed and the cell pellet was resuspended in culture medium. Cells were counted with a Neubauer hemocytometer (Paul Marienfeld GmbH & Co. KG, Lauda-Königshofen, Germany) and seeded in 24-well plates.
Detailed information on affinity and internalization experiments is provided in the supporting information. […] IC50 values of (^natI-BA)KuE were determined on the same day for monitoring assay performance and to identify abnormal deviations in uptake and/or affinity. […] Data were corrected for non-specific binding and normalized to the specific internalization observed for the radioiodinated reference compound (n = 3).
The culture medium was removed and the cells were washed with 500 µL of Hank’s balanced salt solution (HBSS) (Merck KGaA, Darmstadt, Germany), containing 1% bovine serum albumin (BSA) (Merck KGaA, Darmstadt, Germany). Afterwards, 200 µL of HBSS (1% BSA) were added to each well and equilibrated on ice (4 °C) for 15 min. […] Experiments were carried out in triplicates for each concentration. The final concentrations of unlabeled ligand ranged from 10^-11 - 10^-5 M and the final radioligand concentration was 0.2 nM in all binding assays. The cells were incubated for one hour at 4 °C. Incubation was terminated by removal of the incubation medium. The cells were washed with 250 µL of HBSS (1% BSA) and the wash medium was combined with the respective supernatant. This fraction represents the amount of free radioligand. The cells were lysed by addition of 250 µL of 1 M aqueous NaOH. The lysate of each well was transferred to the respective vial as well as 250 µL of 1 M NaOH used for rinsing the well. Quantification of the amount of free and bound activity was performed in a γ-counter. The corresponding IC50 values were calculated using the GraphPad PRISM7 software.

T1 sequence (Q04609 whole entry): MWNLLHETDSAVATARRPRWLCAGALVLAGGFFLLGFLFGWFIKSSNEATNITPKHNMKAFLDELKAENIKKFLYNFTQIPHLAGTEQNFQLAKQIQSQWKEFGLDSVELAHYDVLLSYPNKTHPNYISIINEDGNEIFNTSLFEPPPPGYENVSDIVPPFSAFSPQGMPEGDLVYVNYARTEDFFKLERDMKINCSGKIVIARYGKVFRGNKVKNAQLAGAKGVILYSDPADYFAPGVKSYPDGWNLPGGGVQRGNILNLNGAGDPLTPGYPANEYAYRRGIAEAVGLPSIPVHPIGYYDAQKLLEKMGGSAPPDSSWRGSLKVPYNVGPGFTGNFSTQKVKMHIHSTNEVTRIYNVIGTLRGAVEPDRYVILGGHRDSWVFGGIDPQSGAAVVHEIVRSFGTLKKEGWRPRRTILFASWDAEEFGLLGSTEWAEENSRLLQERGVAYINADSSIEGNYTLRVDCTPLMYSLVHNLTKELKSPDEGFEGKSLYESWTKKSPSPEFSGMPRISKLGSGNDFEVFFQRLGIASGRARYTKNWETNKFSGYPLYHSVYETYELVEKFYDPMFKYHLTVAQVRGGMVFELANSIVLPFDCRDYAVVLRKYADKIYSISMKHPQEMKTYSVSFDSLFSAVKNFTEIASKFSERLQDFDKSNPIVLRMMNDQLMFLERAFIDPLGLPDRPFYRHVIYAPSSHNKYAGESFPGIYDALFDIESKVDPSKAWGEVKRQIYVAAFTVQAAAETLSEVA

## CC(C)(C)[Si](F)(c1ccc(C(=O)NC[C@@H](NC(=O)CN2CCN(CC(=O)[O-])CCN(CC(=O)[O-])CCN(CC(=O)[O-])CC2)C(=O)N[C@H](CCCCNC(=O)CCC(=O)NCCC[C@@H](NC(=O)CC[C@H](NC(=O)N[C@@H](CCc2nnn[nH]2)C(=O)O)C(=O)O)C(=O)O)C(=O)O)cc1)C(C)(C)C.[Lu+3] [^natLu/[^177Lu]Lu-11]
[1]; pooled urine (n = 5)
  metabolite with higher hydrophilicity found in the urine: 18.7%
[1]; radio-RP-HPLC of extract
  metabolite with higher hydrophilicity detected in blood: 8.5%
  metabolite with higher hydrophilicity detected in kidney: 11.7%
  metabolite with higher hydrophilicity detected in tumor: 7.1%
  metabolite with higher hydrophilicity in the liver homogenate: not detectable
  more lipophilic metabolite (tR = 20.5 min) in the liver homogenate: 28.0%
PSMA
  IC50: 16.4 ± 3.8 nM
